One may read the inhibition as the change of the read-out against control, counted positive when it falls. Lower therefore signals a weak effect. Usually Kd stands for the concentration at which binding is half-saturated. By IC50 is commonly meant the concentration at which inhibition is half-maximal.

One data set has as its system tau/Ab. The data set can be described thus: selectivity (tau/Ab). In kind it is binding. An excerpt: (§1) Furthermore, the selectivity can be evaluated in brains containing only Aβ plaques/no tau aggregates, Aβ plaques/and tau aggregates, and control brains. Unfortunately, there are no AD brains with only tau and no Aβ present. By testing radiolabeled tracers in these brain sections, one can more quantitative evaluate the relative binding strength (signal strength) and selectivity of various test compounds as they all contain the same radioactive tracer. For examples, if a test tracer binds only to tau, and not amyloid, it should show no signal in the Aβ plaques only brain sections. If a compound binds only to amyloid, it should show uptake in both types of brains. The difficulty of identifying and further quantifying selective compounds lies in the relative abundance of amyloid vs. tau, which is difficult to measure.

Data set [1] is described as follows: GM Intensity (comp. with W372). In kind it is binding. Conditions: compared with W372.
Data set [2] can be described thus: background in normal brain. In kind it is binding.
Source text: as §1

The nature of data set [3]: Brain uptake in rats and mice. In kind it is in vivo.
A further data set deals with CNS selectivity panel. Put plainly: CNS selectivity panel (hits). In kind it is binding.
Another data set addresses T1, MAO-A (Homo sapiens, UniProt P21397).
T1 sequence (P21397 1-527): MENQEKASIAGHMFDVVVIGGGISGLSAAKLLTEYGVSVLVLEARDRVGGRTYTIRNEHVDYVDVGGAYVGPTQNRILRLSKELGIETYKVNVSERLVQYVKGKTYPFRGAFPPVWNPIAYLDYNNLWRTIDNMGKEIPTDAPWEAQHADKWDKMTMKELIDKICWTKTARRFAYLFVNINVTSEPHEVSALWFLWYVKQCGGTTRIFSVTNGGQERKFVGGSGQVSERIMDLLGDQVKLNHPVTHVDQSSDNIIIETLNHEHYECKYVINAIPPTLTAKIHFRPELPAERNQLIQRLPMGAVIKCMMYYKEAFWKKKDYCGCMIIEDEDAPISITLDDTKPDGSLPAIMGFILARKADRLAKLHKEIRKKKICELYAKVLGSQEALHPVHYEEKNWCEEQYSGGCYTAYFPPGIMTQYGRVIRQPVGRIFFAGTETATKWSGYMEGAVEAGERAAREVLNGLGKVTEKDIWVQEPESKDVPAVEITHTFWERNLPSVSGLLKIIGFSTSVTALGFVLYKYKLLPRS
The data set can be described thus: MAO inhibition, MAO-A. In kind it is biochemical.

Another data set has as its target T2, MAO-B (Homo sapiens, UniProt P27338).
T2 sequence (P27338 1-520): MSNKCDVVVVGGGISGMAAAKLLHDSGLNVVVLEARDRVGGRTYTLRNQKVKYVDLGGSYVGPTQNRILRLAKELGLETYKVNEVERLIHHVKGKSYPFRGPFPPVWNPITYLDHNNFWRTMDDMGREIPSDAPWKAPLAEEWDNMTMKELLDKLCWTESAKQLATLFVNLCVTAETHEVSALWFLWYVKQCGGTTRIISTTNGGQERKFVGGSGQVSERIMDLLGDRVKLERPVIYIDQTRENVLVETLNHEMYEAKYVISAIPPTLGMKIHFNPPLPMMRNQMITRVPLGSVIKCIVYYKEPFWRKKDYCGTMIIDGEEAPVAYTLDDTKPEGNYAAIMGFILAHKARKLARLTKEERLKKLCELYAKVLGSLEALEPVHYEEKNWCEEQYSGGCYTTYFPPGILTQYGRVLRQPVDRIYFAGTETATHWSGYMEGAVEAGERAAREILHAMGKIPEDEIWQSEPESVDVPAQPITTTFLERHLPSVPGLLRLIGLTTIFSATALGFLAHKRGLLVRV
The data set can be described thus: MAO inhibition, MAO-B. In kind it is biochemical.

For a further data set, the system named is tau/amyloid. Put plainly: Tx/tau/amyloid correlation. In kind it is binding.
A further data set addresses Dopamine transp. (Homo sapiens, UniProt Q01959). Put plainly: CNS selectivity panel: Dopamine transp. To be noted: 1 uM. In kind it is binding.
Another data set deals with T3, Serotonin 5-HT2c (Homo sapiens, UniProt P28335).
T3 sequence (P28335 33-458): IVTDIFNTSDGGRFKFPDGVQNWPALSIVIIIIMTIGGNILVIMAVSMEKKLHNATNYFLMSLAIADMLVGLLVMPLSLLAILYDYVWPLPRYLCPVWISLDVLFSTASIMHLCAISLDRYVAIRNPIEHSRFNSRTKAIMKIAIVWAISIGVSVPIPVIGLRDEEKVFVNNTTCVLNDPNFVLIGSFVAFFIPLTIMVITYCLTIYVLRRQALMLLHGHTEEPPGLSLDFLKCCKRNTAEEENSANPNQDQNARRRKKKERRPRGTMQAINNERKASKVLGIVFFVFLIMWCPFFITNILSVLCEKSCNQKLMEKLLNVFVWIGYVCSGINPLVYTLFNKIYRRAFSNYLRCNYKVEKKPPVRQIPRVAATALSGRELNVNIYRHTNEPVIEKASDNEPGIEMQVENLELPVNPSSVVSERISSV
Put plainly: CNS selectivity panel: Serotonin 5-HT2c. Conditions: 1 uM. In kind it is binding.

For the next data set, the target named is T4, tau (Homo sapiens, UniProt P10636).
T4 construct: Native forms of tau (various isoforms, hyperphosphorylated) and amyloid aggregates are present in brain sections and therefore preferred for compound testing
T4 sequence (P10636 623-758 limits assumed): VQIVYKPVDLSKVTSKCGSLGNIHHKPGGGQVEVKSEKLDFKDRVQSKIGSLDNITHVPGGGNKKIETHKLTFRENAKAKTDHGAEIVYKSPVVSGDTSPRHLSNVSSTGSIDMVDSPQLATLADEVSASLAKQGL
The data set can be described thus: KD (tau) binding. To be noted: FIG. 2 legend, [18F] tracer; read-out: KD.
Source text: (§2) When injected intravenously into mice, the Carbazole based compounds; in particular T807, T805 and T794 have shown excellent brain uptake. These compounds also display high binding affinity to tau fibrils. […] In neuropathological staining, compounds of the present invention stained amyloid plaques and/or tau aggregates.
as §1

The next data set concerns Glutamate, NMDA. Put plainly: CNS selectivity panel: Glutamate, NMDA. In kind it is binding. To be noted: 1 uM.
The target of the next data set is Norepinephrine transp. (Homo sapiens, UniProt P23975). Put plainly: CNS selectivity panel: Norepinephrine transp. In kind it is binding. To be noted: 1 uM.
Norepinephrine transp., sequence (P23975 whole entry): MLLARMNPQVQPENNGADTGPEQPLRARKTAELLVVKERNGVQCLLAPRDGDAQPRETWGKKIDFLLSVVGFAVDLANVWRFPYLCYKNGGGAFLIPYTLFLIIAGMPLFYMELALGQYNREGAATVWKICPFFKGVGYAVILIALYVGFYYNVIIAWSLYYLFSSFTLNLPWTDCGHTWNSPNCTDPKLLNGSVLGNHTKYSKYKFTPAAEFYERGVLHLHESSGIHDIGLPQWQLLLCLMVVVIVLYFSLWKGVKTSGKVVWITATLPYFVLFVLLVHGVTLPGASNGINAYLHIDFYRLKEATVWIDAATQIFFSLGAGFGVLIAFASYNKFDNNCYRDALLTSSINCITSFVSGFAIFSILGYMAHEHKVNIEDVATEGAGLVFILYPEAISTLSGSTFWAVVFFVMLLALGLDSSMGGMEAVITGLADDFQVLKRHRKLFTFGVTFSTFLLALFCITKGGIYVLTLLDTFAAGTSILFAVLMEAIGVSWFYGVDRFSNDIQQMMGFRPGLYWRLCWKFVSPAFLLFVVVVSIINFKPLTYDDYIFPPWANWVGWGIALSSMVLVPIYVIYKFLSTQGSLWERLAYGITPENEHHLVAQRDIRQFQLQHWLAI
Data set [4] is described as follows: Brain uptake after intravenous injection into mice. In kind it is in vivo. To be noted: injected intravenously into mice.
Source text: as §2

The next data set relates to Monoamine transp. The data set can be described thus: CNS selectivity panel: Monoamine transp. In kind it is binding. Conditions: 1 uM.
A further data set deals with AchE (Homo sapiens, UniProt P22303). Put plainly: AchE activity (IC50). In kind it is biochemical.
AchE, sequence (P22303 32-614): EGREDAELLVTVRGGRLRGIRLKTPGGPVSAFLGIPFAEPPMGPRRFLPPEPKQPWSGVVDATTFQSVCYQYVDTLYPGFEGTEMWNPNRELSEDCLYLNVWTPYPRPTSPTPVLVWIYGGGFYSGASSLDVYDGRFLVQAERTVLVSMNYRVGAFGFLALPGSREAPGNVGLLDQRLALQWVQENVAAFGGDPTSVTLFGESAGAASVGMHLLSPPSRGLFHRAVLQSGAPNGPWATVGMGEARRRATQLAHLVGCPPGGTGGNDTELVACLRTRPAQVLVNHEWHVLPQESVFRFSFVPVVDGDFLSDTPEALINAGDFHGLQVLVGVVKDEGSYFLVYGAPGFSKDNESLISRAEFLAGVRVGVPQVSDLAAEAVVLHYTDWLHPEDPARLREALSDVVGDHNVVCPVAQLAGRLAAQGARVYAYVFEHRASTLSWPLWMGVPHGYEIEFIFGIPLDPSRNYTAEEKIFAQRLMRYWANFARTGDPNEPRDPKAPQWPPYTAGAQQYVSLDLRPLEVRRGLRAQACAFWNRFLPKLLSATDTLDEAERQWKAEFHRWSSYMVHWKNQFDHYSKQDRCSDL
Another data set has as its system human hepatocytes. The data set can be described thus: Metabolism in human hepatocytes. In kind it is in vitro ADME.

Dopamine transp., sequence (Q01959 whole entry): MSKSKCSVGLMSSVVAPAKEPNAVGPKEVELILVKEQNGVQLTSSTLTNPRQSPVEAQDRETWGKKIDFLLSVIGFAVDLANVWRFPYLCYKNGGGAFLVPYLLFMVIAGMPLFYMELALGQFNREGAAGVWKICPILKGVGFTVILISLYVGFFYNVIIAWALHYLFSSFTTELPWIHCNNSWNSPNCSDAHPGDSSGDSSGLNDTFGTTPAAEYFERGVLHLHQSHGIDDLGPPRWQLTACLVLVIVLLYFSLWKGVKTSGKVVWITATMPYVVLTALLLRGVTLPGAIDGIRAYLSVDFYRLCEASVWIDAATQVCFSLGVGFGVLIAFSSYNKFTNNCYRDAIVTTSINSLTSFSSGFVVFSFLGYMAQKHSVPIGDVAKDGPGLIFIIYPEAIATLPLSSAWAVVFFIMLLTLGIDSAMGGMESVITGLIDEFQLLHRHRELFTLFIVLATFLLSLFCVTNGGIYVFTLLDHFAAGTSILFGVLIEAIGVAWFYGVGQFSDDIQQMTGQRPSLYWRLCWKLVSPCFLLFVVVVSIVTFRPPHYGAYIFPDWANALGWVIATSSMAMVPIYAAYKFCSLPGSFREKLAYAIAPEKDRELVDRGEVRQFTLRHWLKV

Consider `Cc1cnc2c(c1)[nH]c1cc(OCCF)ccc12` [T703, 7-(2-fluoroethoxy)-3-methyl-5H-pyrido[3,2-b]indole], for which the “selectivity (tau/Ab)” value with tau/Ab was found to be 16x. In addition, the “GM Intensity (comp. with W372)” value in [1] worked out at 6%. The “background (normal brain 32566) PSL/mm2” value in data set [2] was 15 PSL/mm2. In addition, in data set [3], the Brain uptake result is recorded as “Yes”. In the data set on CNS selectivity panel, the “CNS selectivity panel (targets named)” value is “NET, σl”. Moreover, the values for the inhibition at 1 µM at MAO-A and against MAO-B were 16% and 0%, respectively.

On to `FCCCc1ccc2c(c1)[nH]c1ccncc12` [T794, 7-(3-Fluoropropyl)-5H-pyrido[4,3-b]indole], for which, in the data set with tau/Ab, the “selectivity (tau/Ab)” value came out at 17x. In addition, the “GM Intensity (comp. with W372)” value in data set [1] is listed as 14%. Besides, the Tx/tau/amyloid correlation result in the data set with tau/amyloid was “yes”. For the same compound, the “CNS selectivity panel: Dopamine transp.” value on Dopamine transp. is recorded as “transp.(34%)”. Besides, the “CNS selectivity panel: Serotonin 5-HT2c” value on Serotonin 5-HT2c is reported as “(33%)”. For the same compound, in data set [2], the “background (normal brain 32566) PSL/mm2” value is 97 PSL/mm2. The Brain uptake entry in [3] is on record as “yes (4 rats, 4 mice)”; in [4] it was “excellent”. Besides, on tau, the Kd is 30 nM. For the same compound, in the data set with Glutamate, NMDA, the “CNS selectivity panel: Glutamate, NMDA” value was “(44%) Monoamine”. Also, the “CNS selectivity panel: Norepinephrine transp.” value on Norepinephrine transp. is given as “transp.(49%)”. The “CNS selectivity panel: Monoamine transp.” value in the data set on Monoamine transp. was “transp. (41%)”. For the same compound, at AchE, the midpoint of inhibition, the IC50, lay at 5 µM. The “human hepatocytes (metabolic stability)” value with human hepatocytes is given as “stable”. Further, the figures for the inhibition at 1 µM against MAO-A and against MAO-B were 19% and 0%, respectively.

The values above are taken from patent publication US20150030540A1 (Eli Lilly and Company, priority 2008, published 2015).
